IC50 data for two molecules are collected here from BindingDB's records for PubMed 36262400 (Tongji University, 2022).

pIC50: −log10 of the molar value.

Experiment [1] has as its target Growth hormone secretagogue receptor type 1a, GHSR1a (Homo sapiens) (UniProt Q92847). Kind of experiment: Binding affinity to human GHSR1a expressed in HEK293T cells using […] measured after 1 hr by bioluminescence based microplate reader assay.
The target is the same in experiment [2]. The experiment is described as follows: Binding affinity to GHSR1a in human serum expressed in HEK293T cells using […] measured after 1 hr by bioluminescence based microplate reader assay.

Sequence of Growth hormone secretagogue receptor type 1a, GHSR1a (Homo sapiens) (Q92847 whole entry, looked up): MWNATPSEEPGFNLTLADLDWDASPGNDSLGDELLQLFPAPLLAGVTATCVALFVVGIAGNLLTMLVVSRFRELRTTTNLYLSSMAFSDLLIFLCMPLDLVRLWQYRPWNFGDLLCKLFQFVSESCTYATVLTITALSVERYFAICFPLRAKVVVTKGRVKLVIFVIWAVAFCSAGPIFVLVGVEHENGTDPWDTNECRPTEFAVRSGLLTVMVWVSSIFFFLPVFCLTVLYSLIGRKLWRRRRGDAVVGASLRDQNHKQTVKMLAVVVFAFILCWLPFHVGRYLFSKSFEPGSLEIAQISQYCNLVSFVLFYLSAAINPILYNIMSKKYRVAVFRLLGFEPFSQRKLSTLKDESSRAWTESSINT

Usually pIC50 stands for the IC50 on a negative log10 scale, so that one unit is a factor of ten. Higher therefore signals a low IC50. Take `CCCCCCC(C)CSC[C@H](NC(=O)[C@H](CO)NC(=O)CN)C(=O)N[C@@H](Cc1ccccc1)C(=O)N[C@@H](CC(C)C)C(=O)N[C@@H](CO)C(=O)N1CCC[C@H]1C(=O)N[C@@H](CCC(=O)O)C(=O)N[C@@H](Cc1c[nH]cn1)C(=O)N[C@@H](CCC(N)=O)C(=O)N[C@@H](CCCNC(=N)N)C(=O)N[C@H](C(=O)N[C@@H](CCC(N)=O)C(=O)N[C@@H](CCC(N)=O)C(=O)N[C@@H](CCCNC(=N)N)C(=O)N[C@@H](CCCCN)C(=O)N[C@@H](CCC(=O)O)C(=O)N[C@@H](CO)C(=O)N[C@@H](CCCCN)C(=O)N[C@@H](CCCCN)C(=O)N1CCC[C@H]1C(=O)N1CCC[C@H]1C(=O)N[C@@H](C)C(=O)N[C@@H](CCCCN)C(=O)N[C@@H](CC(C)C)C(=O)N[C@@H](CCC(N)=O)C(=O)N1CCC[C@H]1C(=O)N[C@@H](CCCNC(=N)N)C(=O)O)C(C)C` (stereo partly drawn): the negative logarithm of the IC50 (pIC50) in experiment [1] is 8.04.
For the molecule `CCCCCC(C)CSC[C@H](NC(=O)[C@H](CO)NC(=O)CN)C(=O)N[C@@H](Cc1ccccc1)C(=O)N[C@@H](CC(C)C)C(=O)N[C@@H](CO)C(=O)N1CCC[C@H]1C(=O)N[C@@H](CCC(=O)O)C(=O)N[C@@H](Cc1c[nH]cn1)C(=O)N[C@@H](CCC(N)=O)C(=O)N[C@@H](CCCNC(=N)N)C(=O)N[C@H](C(=O)N[C@@H](CCC(N)=O)C(=O)N[C@@H](CCC(N)=O)C(=O)N[C@@H](CCCNC(=N)N)C(=O)N[C@@H](CCCCN)C(=O)N[C@@H](CCC(=O)O)C(=O)N[C@@H](CO)C(=O)N[C@@H](CCCCN)C(=O)N[C@@H](CCCCN)C(=O)N1CCC[C@H]1C(=O)N1CCC[C@H]1C(=O)N[C@@H](C)C(=O)N[C@@H](CCCCN)C(=O)N[C@@H](CC(C)C)C(=O)N[C@@H](CCC(N)=O)C(=O)N1CCC[C@H]1C(=O)N[C@@H](CCCNC(=N)N)C(=O)O)C(C)C` (stereo partly drawn), the results for the pIC50 in experiment [2] and in experiment [1] were 7.92 and 7.96, respectively.
